Experimental data as given in patent US5693661A (priority 1995, dated 1997).
In brackets after ≈: the same amount, converted by molar mass.

Experiments:
Format in all cases: cell-based
RhV-14 (Rhinovirus) = assay: microbe, parasite or virus in culture; details: 120 hours at 32° C.; for IC50: Enterovirus, 120 h, read-out: IC50, RhV-14 (50 percent inhibition of plaque formation)
PV-1 (poliovirus) = assay: microbe, parasite or virus in culture; details: Enterovirus C; 72 hours at 37° C.; read-out: IC50, PV-1 (50 percent inhibition of plaque formation)
RhV-1 (Rhinovirus) = assay: microbe, parasite or virus in culture; details: Enterovirus; 120 hours at 32° C.; read-out: IC50, RhV-1 (50 percent inhibition of plaque formation)
RhV-2 (Rhinovirus) = assay: microbe, parasite or virus in culture; details: Enterovirus; 120 hours at 32° C.; read-out: IC50, RhV-2 (50 percent inhibition of plaque formation)
RhV-16 (Rhinovirus) = assay: microbe, parasite or virus in culture; details: Enterovirus; 120 hours at 32° C.; read-out: IC50, RhV-16 (50 percent inhibition of plaque formation)
[1] = tested on: CS-A21C (Coxsackie virus); assay: organism not typed; details: 72 hours at 37° C.; read-out: IC50, CS-A21C (50 percent inhibition of plaque formation)
CS-B3 (Coxsackie virus) = assay: organism not typed; details: 72 hours at 37° C.; read-out: IC50, CS-B3 (50 percent inhibition of plaque formation)

C#C/C=C(\c1ccccc1)c1cc2c(cc1F)nc(N)n2S(=O)(=O)C(C)C [5 (trans)]
IC50 (RhV-14 (Rhinovirus)): 1.9 µg/mL (≈ 4.96 µM)

CC(C)S(=O)(=O)n1c(N)nc2ccc(/C(=C/C#C[Si](C)(C)C)c3ccc(F)cc3)cc21 [1A (trans)]
IC50 (RhV-14 (Rhinovirus)): 10.9 µg/mL (≈ 23.9 µM)

C#C/C=C(/c1ccccc1)c1ccc2ncn(S(=O)(=O)C(C)C)c2c1 [12 (cis)]
IC50 (PV-1 (poliovirus)): 50 µg/mL (≈ 143 µM)

C#C/C=C(\c1ccc(F)cc1)c1ccc2nc(N)n(S(=O)(=O)C(C)C)c2c1 [1B (trans)]
IC50 (RhV-1 (Rhinovirus)): 0.078 µg/mL (≈ 0.203 µM)
IC50 (RhV-2 (Rhinovirus)): 0.091 µg/mL (≈ 0.237 µM)
IC50 (RhV-14 (Rhinovirus)): 0.101 µg/mL (≈ 0.263 µM)
IC50 (RhV-16 (Rhinovirus)): 0.032 µg/mL (≈ 0.0835 µM)

C#C/C=C(\c1ccccc1)c1ccc2nc(N)n(S(=O)(=O)C(C)C)c2c1 [2C (trans)]
IC50 (RhV-1 (Rhinovirus)): 0.033 µg/mL (≈ 0.0903 µM)
IC50 (PV-1 (poliovirus)): 0.035 µg/mL (≈ 0.0958 µM)
IC50 (RhV-2 (Rhinovirus)): 0.065 µg/mL (≈ 0.178 µM)
IC50 (RhV-14 (Rhinovirus)): 0.081 µg/mL (≈ 0.222 µM)
IC50 (RhV-16 (Rhinovirus)): 0.039 µg/mL (≈ 0.107 µM)
IC50 [1]: 0.32 µg/mL (≈ 0.876 µM)

C#CC=C(c1ccc([S+](C)[O-])cc1)c1ccc2nc(N)n(S(=O)(=O)C(C)C)c2c1 (stereo not drawn) [30 (trans)]
IC50 (PV-1 (poliovirus)): 0.07 µg/mL (≈ 0.164 µM)

C#CC=C(c1ccc(OC(F)(F)F)cc1)c1ccc2nc(N)n(S(=O)(=O)C(C)C)c2c1 [28 (trans)]
IC50 (RhV-2 (Rhinovirus)): 0.535 µg/mL (≈ 1.19 µM)

C#CC=C(c1cccc(F)c1)c1ccc2nc(N)n(S(=O)(=O)C(C)C)c2c1 [24 (trans)]
IC50 (RhV-1 (Rhinovirus)): 0.027 µg/mL (≈ 0.0704 µM)
IC50 (RhV-2 (Rhinovirus)): 0.069 µg/mL (≈ 0.18 µM)
IC50 (RhV-14 (Rhinovirus)): 0.088 µg/mL (≈ 0.229 µM)
IC50 (RhV-16 (Rhinovirus)): 0.057 µg/mL (≈ 0.149 µM)

C#C/C=C(\c1ccc(SC)cc1)c1ccc2nc(N)n(S(=O)(=O)C(C)C)c2c1 [4 (trans)]
IC50 (PV-1 (poliovirus)): 0.5 µg/mL (≈ 1.21 µM)

C#C/C=C(\c1cccc(C(F)(F)F)c1)c1ccc2nc(N)n(S(=O)(=O)C(C)C)c2c1 [14 (trans)]
IC50 (RhV-14 (Rhinovirus)): 0.331 µg/mL (≈ 0.764 µM)

C#C/C=C(/c1ccccc1)c1ccc2nc(N)n(-c3ccc(OC)cc3)c2c1 [9 (cis)]
IC50 (PV-1 (poliovirus)): 0.52 µg/mL (≈ 1.42 µM)

C#CC=C(c1ccc(C)cc1)c1ccc2nc(N)n(S(=O)(=O)C(C)C)c2c1 [19 (trans)]
IC50 (RhV-14 (Rhinovirus)): 0.078 µg/mL (≈ 0.206 µM)

C#CC=C(c1ccc2nc(N)n(S(=O)(=O)C(C)C)c2c1)c1cc(F)ccc1F [26 (trans)]
IC50 (RhV-1 (Rhinovirus)): 0.096 µg/mL (≈ 0.239 µM)
IC50 (RhV-2 (Rhinovirus)): 0.079 µg/mL (≈ 0.197 µM)
IC50 (RhV-14 (Rhinovirus)): 0.115 µg/mL (≈ 0.286 µM)
IC50 (RhV-16 (Rhinovirus)): 0.099 µg/mL (≈ 0.247 µM)

C#C/C=C(/c1ccc(C(C)C)cc1)c1ccc2nc(N)n(S(=O)(=O)C(C)C)c2c1 [11 (cis)]
IC50 (PV-1 (poliovirus)): 2.74 µg/mL (≈ 6.72 µM)

C#CC=C(c1ccc(F)c(F)c1)c1ccc2nc(NS(C)(=O)=O)n(S(=O)(=O)C(C)C)c2c1 [18 (trans)]
IC50 (RhV-14 (Rhinovirus)): 1.88 µg/mL (≈ 3.92 µM)

C#CC=C(c1cccc(Cl)c1)c1ccc2nc(N)n(S(=O)(=O)C(C)C)c2c1 [27 (trans)]
IC50 (RhV-1 (Rhinovirus)): 0.129 µg/mL (≈ 0.323 µM)
IC50 (RhV-2 (Rhinovirus)): 0.123 µg/mL (≈ 0.308 µM)
IC50 (RhV-14 (Rhinovirus)): 0.253 µg/mL (≈ 0.633 µM)
IC50 (RhV-16 (Rhinovirus)): 0.185 µg/mL (≈ 0.463 µM)

C#CC=C(c1ccc(OC)c(F)c1)c1ccc2nc(N)n(S(=O)(=O)C(C)C)c2c1 [25 (trans)]
IC50 (RhV-1 (Rhinovirus)): 0.049 µg/mL (≈ 0.119 µM)
IC50 (RhV-2 (Rhinovirus)): 0.054 µg/mL (≈ 0.131 µM)
IC50, RhV-14 (50 percent inhibition of plaque formation) (RhV-14 (Rhinovirus)): 0.065 µg/mL
IC50 (RhV-16 (Rhinovirus)): 0.06 µg/mL (≈ 0.145 µM)

C#C/C=C(/c1ccccc1)c1ccc2nc(N)n(S(=O)(=O)C(C)C)c2c1 [2C (cis)]
IC50 (PV-1 (poliovirus)): 0.19 µg/mL (≈ 0.52 µM)
IC50 (CS-B3 (Coxsackie virus)): 0.055 µg/mL (≈ 0.15 µM)

C#CC=C(c1cccc(F)c1)c1ccc2nc(N)n(S(=O)(=O)N(C)C)c2c1 [16B (trans)]
IC50 (RhV-14 (Rhinovirus)): 0.038 µg/mL (≈ 0.0988 µM)

C#CC=C(c1cccc(F)c1)c1ccc2nc(N)n(S(=O)(=O)N(C)C)c2c1 [17 (trans)]
IC50, RhV-14 (50 percent inhibition of plaque formation) (RhV-14 (Rhinovirus)): 0.071 µg/mL

C#CC=C(c1ccc(F)c(F)c1)c1ccc2nc(N)n(S(=O)(=O)C(C)C)c2c1 [20 (trans)]
IC50 (RhV-14 (Rhinovirus)): 0.155 µg/mL (≈ 0.386 µM)

C#CC=C(c1ccc2nc(N)n(S(=O)(=O)C(C)C)c2c1)c1ccccc1F [21 (trans)]
IC50, RhV-14 (50 percent inhibition of plaque formation) (RhV-14 (Rhinovirus)): 0.078 µg/mL

C#CC=C(c1ccc(OC)c(F)c1)c1ccc2nc(N)n(S(=O)(=O)C(C)C)c2c1 [25 (cis)]
IC50, RhV-14 (50 percent inhibition of plaque formation) (RhV-14 (Rhinovirus)): 0.428 µg/mL

C#C/C=C(\c1ccc(C)c(C)c1)c1ccc2nc(N)n(S(=O)(=O)C(C)C)c2c1 [8 (trans)]
IC50 (PV-1 (poliovirus)): 0.1 µg/mL (≈ 0.254 µM)

C#CC=C(c1cc(F)cc(F)c1)c1ccc2nc(N)n(S(=O)(=O)C(C)C)c2c1 [29 (trans)]
IC50 (RhV-1 (Rhinovirus)): 0.124 µg/mL (≈ 0.309 µM)
IC50 (RhV-2 (Rhinovirus)): 0.176 µg/mL (≈ 0.438 µM)
IC50 (RhV-14 (Rhinovirus)): 0.236 µg/mL (≈ 0.588 µM)
IC50 (RhV-16 (Rhinovirus)): 0.261 µg/mL (≈ 0.65 µM)

C#C/C=C(\c1ccccc1)c1ccc2nc(N)n(-c3ccc(OC)cc3)c2c1 [9 (trans)]
IC50 (PV-1 (poliovirus)): 0.11 µg/mL (≈ 0.301 µM)

CC(C)S(=O)(=O)n1c(N)nc2ccc(/C(=C\C#C[Si](C)(C)C)c3ccc(F)cc3)cc21 [1A (cis)]
IC50 (RhV-14 (Rhinovirus)): 3.9 µg/mL (≈ 8.56 µM)

C#C/C=C(\c1ccc(OC)cc1)c1ccc2nc(N)n(S(=O)(=O)C(C)C)c2c1 [3 (trans)]
IC50 (RhV-1 (Rhinovirus)): 0.03 µg/mL (≈ 0.0759 µM)
IC50 (PV-1 (poliovirus)): 0.21 µg/mL (≈ 0.531 µM)
IC50 (RhV-2 (Rhinovirus)): 0.041 µg/mL (≈ 0.104 µM)
IC50 (RhV-14 (Rhinovirus)): 0.059 µg/mL (≈ 0.149 µM)
IC50 (RhV-16 (Rhinovirus)): 0.029 µg/mL (≈ 0.0733 µM)

C#C/C=C(\c1ccc(C(C)C)cc1)c1ccc2nc(N)n(S(=O)(=O)C(C)C)c2c1 [11 (trans)]
IC50 (PV-1 (poliovirus)): 0.088 µg/mL (≈ 0.216 µM)

C#CC=C(c1ccc(S(C)(=O)=O)cc1)c1ccc2nc(N)n(S(=O)(=O)C(C)C)c2c1 [31 (trans)]
IC50 (PV-1 (poliovirus)): 0.05 µg/mL (≈ 0.113 µM)

C#CC=C(c1ccc(N(C)C)cc1)c1ccc2nc(N)n(S(=O)(=O)C(C)C)c2c1 [15B (trans)]
IC50 (RhV-14 (Rhinovirus)): 0.1 µg/mL (≈ 0.245 µM)

C#C/C=C(\c1ccccc1)c1ccc2ncn(S(=O)(=O)C(C)C)c2c1 [12 (trans)]
IC50 (PV-1 (poliovirus)): 19.2 µg/mL (≈ 54.8 µM)

C#CC=C(c1ccc2nc(N)n(S(=O)(=O)C(C)C)c2c1)c1ccccc1F [21 (cis)]
IC50, RhV-14 (50 percent inhibition of plaque formation) (RhV-14 (Rhinovirus)): 0.478 µg/mL

C#CC=C(c1ccccc1)c1ccc2nc(N)n(S(=O)(=O)C(C)C)c2c1F [22 (trans)]
IC50 (RhV-14 (Rhinovirus)): 1.9 µg/mL (≈ 4.96 µM)

C#C/C=C(\c1ccc(C(F)(F)F)cc1)c1ccc2nc(N)n(S(=O)(=O)C(C)C)c2c1 [13 (trans)]
IC50 (PV-1 (poliovirus)): 0.12 µg/mL (≈ 0.277 µM)

CC#CC=C(c1cccc(F)c1)c1ccc2nc(N)n(S(=O)(=O)C(C)C)c2c1 [33D (trans)]
IC50 (RhV-14 (Rhinovirus)): 0.19 µg/mL (≈ 0.478 µM)

C#CC=C(c1ccccc1)c1cc2c(cc1C)nc(N)n2S(=O)(=O)C(C)C [23 (trans)]
IC50 (RhV-14 (Rhinovirus)): 3.9 µg/mL (≈ 10.3 µM)
